# From patent US4138482A, “3-Cyano-N-(N,N-dimethylaminopropyl)-iminodibenzyl and salts thereof” (Hoffmann-La Roche Inc., priority 1976, dated 1979)
# Where a name gives a salt, the structure may show the parent alone.
# Columns and labels:
# [1] = tested on: serotonin uptake in the synaptosomes of the forebrain of rats; assay: Inhibition of the serotonin uptake in vitro (synaptosomes of the forebrain of rats); assay type: biochemical, rat; settings: for IC50: synaptosomes of the forebrain of rats, read-out: ED50 (inhibition of 50%) of serotonin uptake in vitro
# Procedure: 1. Inhibition of the serotonin uptake in vitro
# (§1) The uptake of serotonin in the synaptosomes of the forebrain of rats was tested according to J. Pharmacol. exp.
# [2] = tested on: serotonin uptake in the synaptosomes of the forebrain of rats; assay: Inhibition of the serotonin uptake ex vivo; assay type: in vivo, rat; settings: for ED50: Rattus norvegicus, ip, injected intraperitoneally, serotonin uptake measured after 1 hour, rats
# Procedure: as §1
# 2. Inhibition of the serotonin uptake ex vivo
# An analogous experimental procedure to that given under 1 was utilized. The test substances were, however, injected intraperitoneally; the serotonin uptake was measured after 1 hour. Untreated rats were used as the controls.
# [3] = tested on: serotonin re-uptake ("membrane pump"); assay: Inhibition of the serotonin re-uptake in vivo (action of the "membrane pump"); design: species or system rat; settings: for ED50: Rattus norvegicus, "membrane pump", Biochem. Pharmacol. 20, 707, 1971
# [4] = tested on: serotonin uptake in blood platelets of the rat; assay: Inhibition of the serotonin uptake in vivo (blood platelets); settings: ip; for inhibition at 5 mg/kg: Rattus norvegicus, Platelet, 5.0 mg/kg intraperitoneally twice daily over 4 days, 12 hours after last administration, read-out: Inhibition in % of the control; for Serotonin in mmol/mg. of protein: 5 mg/kg
# Procedure: 5. Inhibition of the serotonin uptake in vivo
# Rats were given twice daily over a period of 4 days an intraperitoneal injection of 5.0 mg. of test substance per kg. and 12 hours after the last administration the rats were killed. Serotonin was determined spectrofluorimetrically as described in J. Pharmacol. exp.
# [5] = Anticholinergic side-effects; settings: for example mouth dryness, constipation, tachycardia and/or accommodation disorders
# [6] = tested on: neuronal serotonin uptake; assay: Antidepressive activity / inhibition of the neuronal serotonin uptake in animal experiments; assay type: in vivo
# Source text: The compound of formula I and its pharmaceutically acceptable acid addition salts, are therefore useful, for example, for the treatment of depressions of endogenous or exogenous origin. More specifically, they are useful as antidepressants.
# Solubility = assay type: physicochemical; settings: free base
# [7] = tested on: serotonin uptake in blood platelets of the rat; assay: Inhibition of the serotonin uptake in vitro (blood platelets); assay type: cell-based
# Procedure: 4. Inhibition of the serotonin uptake in vitro
# 0.5 Ml. of blood plasma was treated with different concentrations of test substance in 50 μl of physiological sodium chloride solution. After incubating at 37° C. for 5 minutes, serotonin (C^14; 0.1 μM) was added and the mixture was incubated at 37° C. for an additional 5 minutes. The serotonin concentration was determined by means of a C^14 measuring apparatus. A control experiment in which no test substance is used was also carried out.
Structure (SMILES),IC50 [1],ED50 [2],ED50 [3],inhibition at 5 mg/kg [4],Serotonin in mmol/mg. of protein [4],anticholinergic side-effects [5],antidepressive activity [6],inhibition of the neuronal serotonin uptake [6],"solubility in organic solvents (Solubility; dimethylsulfoxide, dimethylformamide, chlorinated hydrocarbons (chloroform, methylene chloride), alkanols (methanol, ethanol), ether and benzene)",solubility in water (Solubility; water),"times greater activity than substance B ([1]; versus known substance B, synaptosomes)","times greater activity than substance C ([1]; versus known substance C, synaptosomes)",times greater activity than substance B ([7]; versus known substance B),times greater activity than substance C ([7]; versus known substance C),"as active as substance B in times smaller doses ([2]; versus known substance B, ex vivo)","as active as substance C in times smaller doses ([2]; versus known substance C, ex vivo)","as active as substance B in times smaller doses ([3]; versus known substance B, in vivo re-uptake)","as active as substance C in times smaller doses ([3]; versus known substance C, in vivo re-uptake)"
"CN(C)CCCN1c2ccccc2CCc2ccccc21 [Substance B, N-(N,N-Dimethylaminopropyl)-iminodibenzyl hydrochloride, reference compound]",78 nM,19 mg/kg,12.8 mg/kg,14%,9.72 ± 2.12 mmol/mg. of protein,–,–,–,–,–,–,–,–,–,–,–,–,–
"CN(C)CCCN1c2ccccc2CCc2ccc(C#N)cc21 [3-cyano-N-(N,N-dimethylaminopropyl)-iminodibenzyl]",–,–,–,–,–,confined to a minimum,strong antidepressive activity,extraordinarily strong inhibition of the neuronal serotonin uptake,relatively good solubility,soluble in water with relative difficulty,–,–,–,–,–,–,–,–
"CN(C)CCCN1c2ccccc2CCc2ccc(C#N)cc21 [Substance A, 3-Cyano-N-(N,N-dimethylaminopropyl)-iminodibenzyl hydrochloride]",1.5 nM,0.9 mg/kg,0.7 mg/kg,61%,4.09 ± 1.30 mmol/mg. of protein,–,–,–,–,–,52 times,4.2 times,130 times,20 times,21 times,2.4 times,18 times,9 times
